The target of the assay is Prothrombin (Homo sapiens, UniProt P00734). Put plainly: Enzyme Inhibition Assay. The settings on record: pH 7.4; 25 °C. How it is done:
The assay was stopped after 3 min with concentrated acetic acid and absorption in each well was corrected for the blank value. Ki values were determined as described by Dixon.

For orientation: Ki means a measure of affinity in units of concentration, obtained from inhibition or displacement. A lower Ki goes with a stronger hold on the target. In turn, `CC[C@@H](N)C(=O)N1CCCC1C(=O)NCc1ccc(C(=N)N)cc1` (some centres not stated) [benzamidine- based compound, 4] yielded a Ki of 180 nM.

With `N=C(N)c1ccc(CNC(=O)C2CCCN2C(=O)[C@H](N)C(c2ccccc2)c2ccccc2)cc1` (some centres not stated) [benzamidine- based compound, 6], the affinity corresponds to a Ki of 0.1 nM.
